Patent US7442802B2, “Cyclooxygenase-2 selective inhibitors, compositions and methods of use” (NitroMed, Inc., priority 2002, dated 2008)

Tests used:
[1] = target: T1, COX-1 (Homo sapiens, UniProt P23219); experiment: Human COX-1 enzyme activity in human whole blood (A23187-stimulated, thromboxane B2 EIA); format: cell-based; conditions: 100 μM, human whole blood, A23187 stimulation; for inhibition at 100 µM: read-out: COX-1 Inhibition (% at 100 μM)
T1 construct: endogenous in cells; host or cells: heparinised human whole blood from donors, stimulated with the calcium ionophore A23187
Method: (§1) The blood was transported to the laboratory on ice packs and used within 1.5 hours of collection. Upon receipt in the laboratory, the blood was allowed to come to room temperature for 15 minutes prior to distribution in 1 mL aliquots per well of 24 well tissue culture plates. […] Test compounds were dissolved in DMSO, at 1000 fold the final desired concentration, and further diluted, as indicated, in DMSO. One μL of each dilution of the test compound was added per well, in duplicate wells; wells not receiving test compound (e.g., basal, background or control wells) received 1 μL DMSO. […] Louis, Mo., Catalogue No. […] Louis, Mo., Catalogue No. […] (Again, basal, background or control wells not stimulated with A23187 received 1 μL of DMSO.) At 5 hours after the addition of the test compound, all incubations were terminated by placement on ice and the addition of 2 mM EGTA (100 μL of 20 mM EGTA, tetrasodium, in PBS (phosphate buffered saline) without Ca^++ and Mg^++, pH 7.2)). […] One hundred μL of plasma was removed from each blood sample and added to 1 mL of methanol in new 15 mL polypropylene centrifuge tubes, vortexed, and stored overnight at -20° C. […] The samples were assayed for thromboxane B2 using EIA kits supplied by Cayman Chemical Co. […] The % inhibition for COX-1 and COX-2 enzyme activity in human whole blood by the test compounds, at the indicated concentrations, are given in Table 1.

[2] = target: T2, COX-2 (Homo sapiens, UniProt P35354); experiment: Human COX-2 enzyme activity in human whole blood (LPS-induced, thromboxane B2 EIA); format: cell-based; conditions: human whole blood, LPS induction; for inhibition at 1 µM: read-out: COX-2 Inhibition (% at 1 μM); for inhibition at 10 µM: read-out: COX-2 Inhibition (% at 10 μM)
T2 construct: To induce COX-2, lipopolysaccharide (LPS) from E. coli; endogenous in cells; host or cells: heparinised human whole blood from donors, with COX-2 induced by E. coli LPS
T2 sequence (P35354 18-604): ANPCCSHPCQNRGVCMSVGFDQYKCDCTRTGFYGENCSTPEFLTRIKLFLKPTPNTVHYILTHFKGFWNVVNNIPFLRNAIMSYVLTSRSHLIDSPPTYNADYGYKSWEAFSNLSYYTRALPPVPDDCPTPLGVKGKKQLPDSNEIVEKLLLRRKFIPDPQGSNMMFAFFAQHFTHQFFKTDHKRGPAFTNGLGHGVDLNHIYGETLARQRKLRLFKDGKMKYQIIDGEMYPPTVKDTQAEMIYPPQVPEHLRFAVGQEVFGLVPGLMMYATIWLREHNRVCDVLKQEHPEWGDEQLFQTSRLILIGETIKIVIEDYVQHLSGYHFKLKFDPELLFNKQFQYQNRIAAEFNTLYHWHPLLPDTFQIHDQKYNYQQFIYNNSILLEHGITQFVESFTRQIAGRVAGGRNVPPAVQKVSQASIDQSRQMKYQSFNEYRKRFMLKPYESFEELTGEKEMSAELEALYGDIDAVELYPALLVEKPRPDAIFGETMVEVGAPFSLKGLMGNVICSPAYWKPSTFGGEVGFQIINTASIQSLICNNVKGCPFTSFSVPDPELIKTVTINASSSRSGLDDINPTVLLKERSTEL
Method: as §1

T1 sequence (P23219 24-599): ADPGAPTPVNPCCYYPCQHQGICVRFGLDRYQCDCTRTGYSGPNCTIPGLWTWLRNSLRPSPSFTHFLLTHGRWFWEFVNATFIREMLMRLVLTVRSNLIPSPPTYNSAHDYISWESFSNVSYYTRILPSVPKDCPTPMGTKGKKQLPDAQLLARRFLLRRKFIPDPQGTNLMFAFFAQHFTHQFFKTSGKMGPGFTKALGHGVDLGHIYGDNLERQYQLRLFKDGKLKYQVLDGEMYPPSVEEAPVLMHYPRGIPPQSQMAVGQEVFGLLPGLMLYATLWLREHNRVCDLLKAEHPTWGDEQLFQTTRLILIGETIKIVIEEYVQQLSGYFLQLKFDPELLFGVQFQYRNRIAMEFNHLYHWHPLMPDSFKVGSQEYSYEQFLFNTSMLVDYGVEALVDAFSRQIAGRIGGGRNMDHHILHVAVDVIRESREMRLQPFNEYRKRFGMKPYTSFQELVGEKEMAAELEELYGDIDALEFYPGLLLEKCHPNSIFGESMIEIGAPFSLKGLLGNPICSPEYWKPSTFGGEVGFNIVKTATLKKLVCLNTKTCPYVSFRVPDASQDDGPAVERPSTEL

inhibition at 100 µM [1] [%]	inhibition at 1 µM [2] [%]	inhibition at 10 µM [2] [%]	SMILES	COX-1 Inhibition (% at 100 μM) [1] [%]	COX-2 Inhibition (% at 1 μM) [2] [%]	COX-2 Inhibition (% at 10 μM) [2] [%]
10	20	55	CS(=O)(=O)c1ccc(-c2cc(COCCCO)nn2C2CCCCC2)cc1 [Example 16b, 1-(1-Cyclohexyl-3-((3-hydroxypropoxy)methyl)pyrazol-5-yl)-4-(methylsulfonyl)benzene]			
			CS(=O)(=O)c1ccc(-c2cc(C(=O)CO[N+](=O)[O-])nn2-c2ccccn2)cc1 [Example 35c, 1-(5-(4-(Methysulfonyl)phenyl)-1-(2-pyridyl)pyrazol-3-yl)-2-(nitrooxy)ethan-1-one]	0	25	30
			CS(=O)(=O)c1ccc(-c2cc(/C=C\CCO)nn2-c2ccccc2)cc1 [Example 11d]	25	0	30
25	20	80	CS(=O)(=O)c1ccc(-c2cc(COCCCO)nn2-c2ccccc2)cc1 [Example 5d, 4-(3-((3-Hydroxypropoxy)methyl)-1-phenylpyrazol-5-yl)-1-(methylsulfonyl)benzene]			
45	60	100	CS(=O)(=O)c1ccc(-c2cc(COCCCO[N+](=O)[O-])nn2-c2ccc(C(F)(F)F)cc2)cc1 [Example 9e, 4-(Methylsulfonyl)-1-(3-((3-(nitrooxy)propoxy)methyl)-1-(4-(trifluoromethyl)phenyl)pyrazol-5-yl)benzene]			
-20	15	75	NS(=O)(=O)c1ccc(-c2c(-c3ccccc3)noc2COCC(F)(F)CO)cc1 [Example 32c, 4-(5-((2,2-Difluoro-3-hydroxypropoxy)methyl)-3-phenylisoxazol-4-yl)benzenesulfonamide]			
10	15	25	CS(=O)(=O)c1ccc(-c2cc(CNCCO)nn2C2CCCCC2)cc1 [Example 38c, 1-(1-Cyclohexyl-3-(((2-hydroxyethyl)amino)methyl)pyrazol-5-yl)-4-(methylsulfonyl)benzene]			
100	85	100	COc1ccc(-n2nc(COCCCO[N+](=O)[O-])cc2-c2ccc(S(C)(=O)=O)cc2)cc1 [Example 39, 4-(1-(4-Methoxyphenyl)-3-((3-(nitrooxy)propoxy)methyl)pyrazol-5-yl)-1-(methylsulfonyl)benzene]			
80	135	100	CS(=O)(=O)c1ccc(-c2cc(COc3cccc(CO)c3)nn2C2CCCCC2)cc1 [Example 17b, 1-(1-Cyclohexyl-3-((3-(hydroxymethyl)phenoxy)methyl)pyrazol-5-yl)-4-(methylsulfonyl)benzene]			
40	50	85	CS(=O)(=O)c1ccc(-c2cc(C(F)(F)OCCCO)nn2-c2ccccc2)cc1 [Example 6e, 1-(3-(Difluoro(3-hydroxypropoxy)methyl)-1-phenylpyrazol-5-yl)-4-(methylsulfonyl)benzene]			
90	65	100	CS(=O)(=O)c1ccc(-c2cc(COCCCO[N+](=O)[O-])nn2-c2ccc(Cl)cc2)cc1 [Example 7e, 1-(1-(4-Chlorophenyl)-3-((3-(nitrooxy)propoxy)methyl)pyrazol-5-yl)-4-(methylsulfonyl)benzene]			
0	60	90	CS(=O)(=O)c1ccc(-c2cc(C(=O)CCCO)nn2C2CCCCC2)cc1 [Example 3e, 1-(1-Cyclohexyl-5-(4-(methylsulfonyl)phenyl)pyrazol-3-yl)-4-hydroxybutan-1-one]			
90	50	95	Cc1ccc(-n2nc(COCCCO[N+](=O)[O-])cc2-c2ccc(S(C)(=O)=O)cc2)cc1 [Example 8e, 1-(1-(4-methylphenyl)-3-((3-(nitrooxy)propoxy)methyl)pyrazol-5-yl)-4-(methylsulfonyl)benzene]			
0	25	25	CS(=O)(=O)c1ccc(-c2cc(C(=O)CCCO)nn2-c2ccc(F)cc2)cc1 [Example 13d, 1-(1-(4-Fluorophenyl)-5-(4-(methylsulfonyl)phenyl)pyrazol-3-yl)-4-hydroxybutan-1-one]			
70	20	90	Cc1ccc(-n2nc(COCCCO)cc2-c2ccc(S(C)(=O)=O)cc2)cc1 [Example 8d, 1-(3-((3-Hydroxypropoxy)methyl)-1-(4-methylphenyl)pyrazol-5-yl)-4-(methylsulfonyl)benzene]			
25	0	25	CS(=O)(=O)c1ccc(-c2cc(COc3cccc(CO[N+](=O)[O-])c3)nn2C2CCCCC2)cc1 [Example 17d, 1-(1-Cyclohexyl-3-((3-((nitrooxy)methyl)phenoxy)methyl)pyrazol-5-yl)-4-(methylsulfonyl)benzene]			
			CS(=O)(=O)c1ccc(-c2cc(C(=O)CCCCCO[N+](=O)[O-])nn2C2CCCCC2)cc1 [Example 22d]	75	30	30
			CS(=O)(=O)c1ccc(-n2nc(/C=C\CCO)cc2-c2cccnc2)cc1 [Example 25e, 1-(3-((1Z)-4-Hydroxybut-1-enyl)-5-(3-pyridnyl)pyrazolyl)-4-(methylsulfonyl)benzene]	10	15	0
40	10	25	CS(=O)(=O)c1ccc(-c2cc(CO)nn2C2CCCCCC2)cc1 [Example 2c, 1-(1-Cycloheptyl-3-(hydroxymethyl)pyrazol-5-yl)-4-(methylsulfonyl)benzene]			
80	55	95	CS(=O)(=O)c1ccc(-c2cc(COCCCO[N+](=O)[O-])nn2-c2ccc(F)cc2)cc1 [Example 18e, 1-(1-(4-Fluorophenyl)-3-((3-(nitrooxy)propoxy)methyl)pyrazol-5-yl)-4-(methylsulfonyl)benzene]			
			CS(=O)(=O)c1ccc(-c2cc(/C=C/CCO)nn2C2CCCCC2)cc1 [Example 21b]	10	10	25
			NS(=O)(=O)c1ccc(-c2c(-c3ccccc3)noc2COCCO[N+](=O)[O-])cc1 [Example 27b]	65	50	100
0	15	45	Cc1ccc(-n2nc(C(=O)CCCO)cc2-c2ccc(S(C)(=O)=O)cc2)cc1 [Example 12d, 4-Hydroxy-1-(1-(4-methylphenyl)-5-(4-(methylsulfonyl)phenyl)pyrazol-3-yl)butan-1-one]			

SMILES	inhibition at 100 µM [1] [%]	inhibition at 1 µM [2] [%]	inhibition at 10 µM [2] [%]	COX-1 Inhibition (% at 100 μM) [1] [%]	COX-2 Inhibition (% at 1 μM) [2] [%]	COX-2 Inhibition (% at 10 μM) [2] [%]
CC(CCOCc1cc(-c2ccc(S(C)(=O)=O)cc2)n(-c2ccccc2)n1)O[N+](=O)[O-] (stereo not drawn) [Example 19c, 4-(Methylsulfonyl)-1-(3-((3-(nitrooxy)butoxy)methyl)-1-phenylpyrazol-5-yl)benzene]	35	20	30			
